Consider six compounds from BindingDB's records for doi:10.1039/c9md00489k (University of Porto, 2020).

*1 amine or outer side, *2 acyl side, *3 side chain or, on linkers, in order; H or OH if unused. Where a SMILES comes first, the peptide text is derived from it. The star is where a group is joined. X1 = O=c1nc(N*)ccn1[C@@H]1O[C@H](CO)[C@@H](O)C1(F)F; Suc = O=C(CCC(=O)[*:2])[*:1] Bounds are passed on as bounds.

The assay in a line: Substrate activity at ENT1 in human BXPC-3 cells assessed as inhibition of cell growth pretreated with ENT1 inhibitor nitrobenzylthioinosine for 5 mins measured after 72 hrs by SRB assay. Background: The SRB assay estimates cell density from bound dye.
Take `CSCC[C@H](NC(=O)[C@H](NC(=O)[C@@H]1CCCN1C(=O)[C@H](CC(C)C)NC(=O)[C@H](CCCCN)NC(=O)[C@@H](N)Cc1c[nH]c2ccccc12)C(C)C)C(N)=O`: the IC50 is over 1000 nM.
With `CSCC[C@H](NC(=O)[C@@H](NC(=O)[C@@H]1CCCN1C(=O)[C@H](CC(C)C)NC(=O)[C@H](CCCCN)NC(=O)CCC(=O)Nc1ccn([C@@H]2O[C@H](CO)[C@@H](O)C2(F)F)c(=O)n1)C(C)C)C(=O)N[C@@H](Cc1c[nH]c2ccccc12)C(N)=O` ({X1-Suc}-KLPVMW-NH2), the half-maximal inhibitory concentration (IC50) is 384 nM.
Turning to `CSCC[C@H](NC(=O)[C@@H](NC(=O)[C@@H]1CCCN1C(=O)[C@H](CC(C)C)NC(=O)[C@H](CCCCN)NC(=O)[C@H](Cc1c[nH]c2ccccc12)NC(=O)CCC(=O)Nc1ccn([C@@H]2O[C@H](CO)[C@@H](O)C2(F)F)c(=O)n1)C(C)C)C(N)=O` ({X1-Suc}-WKLPVM-NH2), the IC50 is 380 nM.
The result for `CC(C)C[C@H](NC(=O)[C@@H](NC(=O)[C@@H]1CCCN1C(=O)[C@@H](NC(=O)[C@H](Cc1c[nH]c2ccccc12)NC(=O)CCC(=O)Nc1ccn([C@@H]2O[C@H](CO)[C@@H](O)C2(F)F)c(=O)n1)C(C)C)[C@@H](C)O)C(=O)N[C@@H](CCCCN)C(N)=O` ({X1-Suc}-WVPTLK-NH2) reads 381 nM; that for H-KLPVMW-NH2, over 1000 nM.
Turning to H-WVPTLK-NH2, the IC50 was over 1000 nM.

As usually defined, the IC50 is the concentration that gives 50% inhibition.
